Biological target: T1, human KSP motor domain (KSP(367H)) (Homo sapiens, UniProt P52732)
T1 construct: were used to amplify the motor domain and the neck linker region; made in house; host or cells: E. coli BL21 (DE3), vector pRSETa
T1 sequence (P52732 18-359 limits assumed): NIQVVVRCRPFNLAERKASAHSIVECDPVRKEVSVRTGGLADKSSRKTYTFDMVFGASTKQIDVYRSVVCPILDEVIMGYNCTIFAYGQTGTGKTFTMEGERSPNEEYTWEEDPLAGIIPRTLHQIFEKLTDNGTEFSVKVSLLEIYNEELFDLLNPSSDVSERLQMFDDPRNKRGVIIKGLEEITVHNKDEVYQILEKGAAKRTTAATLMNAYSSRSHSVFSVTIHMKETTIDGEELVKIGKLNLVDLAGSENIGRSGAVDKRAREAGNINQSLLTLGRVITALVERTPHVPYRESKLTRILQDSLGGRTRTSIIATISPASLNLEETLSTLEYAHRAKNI
Test: Kinesin ATPase in vitro assay
Format: biochemical
Settings: KSP motor domain with microtubules, 1 mM ATP, 23° C.; free phosphate by quinaldine red/ammonium molybdate
Description: I. Kinesin ATPase In Vitro Assay
Cloning and Expression of Human Poly-Histidine Tagged KSP Motor Domain (KSP(367H))
Plasmids for the expression of the human KSP motor domain construct were cloned by PCR using a pBluescript full length human KSP construct (Blangy et al., Cell, vol. 83, pp 1159-1169, 1995) as a template. The N-terminal primer 5′-[…] (SEQ. ID. NO.: 1) and the C-terminal primer 5′-[…] […] (SEQ. ID. NO.: 2) were used to amplify the motor domain and the neck linker region. The PCR products were digested with AseI and XhoI, ligated into the NdeI/XhoI digestion product of pRSETa (Invitrogen) and transformed into E. coli BL21 (DE3).
Cells were grown at 37° C. to an OD600 of 0.5. […]
The kinesin motor domain is incubated with microtubules, 1 mM ATP (1:1 MgCl2: Na-ATP), and compound at 23° C. in buffer containing 80 mM K-HEPES (pH 7.0), 1 mM EGTA, 1 mM DTT, 1 mM MgCl2, and 50 mM KCl. […] Free phosphate from the ATP hydrolysis reaction is measured via a quinaldine red/ammonium molybdate assay by adding 150 μl of quench C buffer containing a 2:1 ratio of quench A:quench B. Quench A contains 0.1 mg/ml quinaldine red and 0.14% polyvinyl alcohol; quench B contains 12.3 mM ammonium molybdate tetrahydrate in 1.15 M sulfuric acid. The reaction is incubated for 10 minutes at 23° C., and the absorbance of the phospho-molybdate complex is measured at […].

CN(C(=O)N1CC(c2cc(F)ccc2F)=C[C@@]1(CO)c1ccccc1)[C@H]1CCN(CCC[Si](C)(C)C)C[C@H]1F [Compound 11-1, (2S)-4-(2,5-difluorophenyl)-N-{(3R,4S)-3-fluoro-1-[3-(trimethylsilyl)propyl]piperidin-4-yl}-2-(hydroxymethyl)-N-methyl-2-phenyl-2,5-dihydro-1H-pyrrole-1-carboxamide]
IC50: ≤ 50 µM
